How the values were obtained:
[1] = Solid-state storage stability at elevated temperature and humidity (XRPD); assay type: physicochemical
Method: One hundred milligrams of the amorphous form of the compound of Formula I was solubilized into 5 volumes of ethyl acetate or acetone under constant stirring at respectively 70° C. or 50° C. (experiment performed in duplicate). […] Systems were then allowed to equilibrate at initial temperature for 1 hour (crashing out reported in all cases). Some samples were then filtered at respectively 70° C. or 50° C. Other samples were cooled to 0° C. at 0.1° C./min. Suspensions were observed after 1 hour slurrying at 0° C. Ten volumes of solvent were added to each sample and the systems were allowed to equilibrate at 0° C. for 1 hour. One aliquot of each condition was filtered under reduced pressure, dried for 16 hours at 70° C. and 3 mbar and characterized by XRPD, ^1H-NMR and HPLC (Table 6).
Ca. 0.5 g of the compound of Formula I was weighed in a 10 mL vial, 15 vol. of IPAc were added. The suspension was heated to 50° C., 2.5 eq of acid added (from a stock solution 1 M in THF) and then cooled to 5° C. at 0.1° C. min^−1. Suspension was filtered with vacuum and allowed to dry under these conditions for 4 h. Samples were analyzed by XRPD to check the conversion and then they were dried under vacuum at 30° C. for 20 h. […] The suspension was heated to 50° C. and additional 0.5 eq of acid added from a stock solution 1 M in THF. The suspension was then cooled to 5° C. at 0.1° C. min^−1. The solid was filtered with vacuum and allowed to dry under these conditions for 4 h. The solid was analyzed by XRPD to check the conversion and then it was dried under vacuum at 30° C. for 20 h.

[2] = Gravimetric vapor sorption (GVS); assay type: physicochemical; conditions: for XRPD post GVS / XRPD after GVS: solid form after the sorption cycle
Method: Sorption isotherms were obtained using a SMS DVS Intrinsic moisture sorption analyzer, controlled by DVS Intrinsic Control software v1.0.0.30. The sample temperature was maintained at 25° C. by the instrument controls. The humidity was controlled by mixing streams of dry and wet nitrogen, with a total flow rate of 200 mL/min. The relative humidity (RH) was measured by a calibrated Rotronic probe (dynamic range of 1.0-100% RH), located near the sample. The weight change, (mass relaxation) of the sample as a function of % RH was constantly monitored by the microbalance (accuracy ±0.005 mg). Typically 5-20 mg of sample was placed in a tared mesh stainless steel basket under ambient conditions. The sample was loaded and unloaded at 40% RH and 25° C. (typical room conditions). A moisture sorption isotherm was performed as outlined below (2 scans giving 1 complete cycle). The standard isotherm was performed at 25° C. at 10% RH intervals over a 0-90% RH range. Data analysis was undertaken in Microsoft Excel using DVS Analysis Suite v6.0.0.7.

[3] = Thermodynamic aqueous solubility; assay type: physicochemical; conditions: for thermodynamic aqueous solubility, rank order: solubility decreases in the printed order
Method: The suspension was equilibrated at 25° C. for 24 hours then the pH was measured. The suspension was then filtered through a glass fibre C filter. The filtrate was then diluted by an appropriate factor, e.g. 101. Quantitation was by HPLC with reference to a standard solution of approximately 0.25 mg/mL in DMSO. Different volumes of the standard, diluted and undiluted sample solutions were injected.

Caco-2 cell model = assay: Permeability in the 3-day Caco-2 cell model; assay type: in vitro ADME
[4] = Half-life in human hepatocytes; assay type: in vitro ADME
Method: Furthermore, the half-life in human hepatocytes was in the mid/long range of >8 hours for the compound of Formula I. Consequently, rapid hepatic clearance is unlikely to contribute to low oral bioavailability.

[5] = Absolute oral bioavailability in rats; conditions: rat, in vivo, dosed as a solution in 0.5% TPGS/37.5% PEG200/60% PBS, 10 mg/kg PO and 2 mg/kg IV
Method: The desired route of administration for the compound of Formula I is oral. The absolute oral bioavailability in rats was determined to be approximately 4-8% when dosed as a solution in 0.5% TPGS/37.5% PEG200/60% PBS. The doses were 10 mg/kg PO and 2 mg/kg IV.

P-gp = target: T1, P-gp (Homo sapiens, UniProt P08183); assay: P-gp substrate assessment (BA/AB transport ratio, with or without cyclosporine A); assay type: in vitro ADME
T1 construct: endogenous in cells; host or cells: Caco-2
T1 sequence (P08183 whole entry): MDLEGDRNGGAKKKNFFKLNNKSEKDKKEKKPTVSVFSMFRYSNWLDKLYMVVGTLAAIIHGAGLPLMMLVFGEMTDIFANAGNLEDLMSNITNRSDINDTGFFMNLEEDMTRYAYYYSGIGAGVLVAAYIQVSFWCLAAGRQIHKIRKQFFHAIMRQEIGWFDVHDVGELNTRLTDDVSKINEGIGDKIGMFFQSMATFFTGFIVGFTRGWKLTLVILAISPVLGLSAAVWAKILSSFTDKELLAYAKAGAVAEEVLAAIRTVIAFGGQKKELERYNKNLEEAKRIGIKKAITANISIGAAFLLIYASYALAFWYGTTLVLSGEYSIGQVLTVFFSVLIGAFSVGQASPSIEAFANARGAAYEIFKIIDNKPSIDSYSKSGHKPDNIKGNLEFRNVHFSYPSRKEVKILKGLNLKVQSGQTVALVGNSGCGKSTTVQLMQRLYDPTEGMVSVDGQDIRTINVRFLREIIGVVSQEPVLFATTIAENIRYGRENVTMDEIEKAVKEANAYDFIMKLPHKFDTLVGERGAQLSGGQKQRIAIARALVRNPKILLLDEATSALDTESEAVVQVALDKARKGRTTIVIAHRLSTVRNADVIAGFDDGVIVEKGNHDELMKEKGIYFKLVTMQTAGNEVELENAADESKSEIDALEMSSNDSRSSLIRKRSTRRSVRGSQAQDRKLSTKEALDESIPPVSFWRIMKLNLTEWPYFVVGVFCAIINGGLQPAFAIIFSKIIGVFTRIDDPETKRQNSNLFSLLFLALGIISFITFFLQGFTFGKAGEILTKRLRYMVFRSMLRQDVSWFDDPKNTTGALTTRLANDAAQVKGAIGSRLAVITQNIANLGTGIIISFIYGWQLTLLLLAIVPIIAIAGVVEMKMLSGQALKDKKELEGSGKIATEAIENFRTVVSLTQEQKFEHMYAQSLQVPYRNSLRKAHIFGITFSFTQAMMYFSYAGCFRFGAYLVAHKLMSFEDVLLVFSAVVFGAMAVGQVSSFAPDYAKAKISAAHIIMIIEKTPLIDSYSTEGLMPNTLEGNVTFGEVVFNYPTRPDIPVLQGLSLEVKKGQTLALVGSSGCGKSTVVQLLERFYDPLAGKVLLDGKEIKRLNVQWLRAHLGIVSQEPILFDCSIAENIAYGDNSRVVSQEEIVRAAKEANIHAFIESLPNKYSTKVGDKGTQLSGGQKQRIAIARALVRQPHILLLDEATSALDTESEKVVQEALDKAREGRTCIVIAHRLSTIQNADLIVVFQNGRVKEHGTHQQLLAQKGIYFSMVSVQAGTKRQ

COC(=O)N[C@H](C(=O)N1CCC[C@H]1c1nc2ccc(-c3csc4c(-c5ccc(-c6cnc([C@@H]7CCCN7C(=O)[C@H](NC(=O)OC)c7ccccc7)[nH]6)cc5)csc34)cc2[nH]1)C(C)C [Form A, methyl N-{(1R)-2-[(2S)-2-{5-[4-(6-{2-[(2S)-1-{(2S)-2-[(methoxycarbonyl)amino]-3-methylbutanoyl}pyrrolidin-2-yl]-3H-benzimidazol-5-yl}thieno[3,2-b]thiophen-3-yl)phenyl]-1H-imidazol-2-yl}pyrrolidin-1-yl]-2-oxo-1-phenylethyl}carbamate]
Stability 25° C./92% RH (XRPD after 11 days) ([1]; 25° C./92% RH, 11 days): Form A | Stability 40° C./75% RH (XRPD after 11 days) ([1]; 40° C./75% RH, 11 days): Form A | effect of GVS analysis and storage at elevated temperature and humidity on the crystals ([1]; eleven days, recrystallized 100 mg scale samples): remained as Form A | GVS weight uptake at 90% RH ([2]; 25° C., 90% RH): 1.16 wt % | XRPD post GVS / XRPD after GVS [2]: Form A

COC(=O)N[C@H](C(=O)N1CCC[C@H]1c1nc2ccc(-c3csc4c(-c5ccc(-c6cnc([C@@H]7CCCN7C(=O)[C@H](NC(=O)OC)c7ccccc7)[nH]6)cc5)csc34)cc2[nH]1)C(C)C [compound of Formula I, methyl N-{(1R)-2-[(2S)-2-{5-[4-(6-{2-[(2S)-1-{(2S)-2-[(methoxycarbonyl)amino]-3-methylbutanoyl}pyrrolidin-2-yl]-3H-benzimidazol-5-yl}thieno[3,2-b]thiophen-3-yl)phenyl]-1H-imidazol-2-yl}pyrrolidin-1-yl]-2-oxo-1-phenylethyl}carbamate]
BCS classification ([3]; based on poor aqueous solubility and low Caco-2 permeability): BCS Class IV | solubility ([3]; poor aqueous solubility, basis of BCS classification): < 500 µg/mL | thermodynamic aqueous solubility, rank order [3]: HCl>H2SO4>tosylate=free base form | permeability (Caco-2 cell model): low permeability | half-life [4]: > 8 h | bioavailability [5]: 4 to 8% | effect from addition of P-gp inhibitor cyclosporine A (P-gp): absence of effect | P-gp substrate (P-gp; deduced from BA/AB transport ratio and cyclosporine A addition): not a P-gp substrate | efflux ratio (P-gp; human, Caco-2): < 1

H2SO4
Stability 25° C./92% RH (XRPD after 7 days) ([1]; 25° C./92% RH): Amorphous | Stability 40° C./75% RH (XRPD after 7 days) ([1]; 40° C./75% RH): Amorphous | GVS wt uptake between 0-90% RH [2]: RH 25.5% wt | GVS wt uptake between 40-75% RH ([2]; 40-75% RH): 6.12% wt uptake | GVS wt uptake between 75-90% RH ([2]; 75-90% RH): RH 14.5% wt | XRPD post GVS / XRPD after GVS [2]: Amorphous

Tosylate
pH of the equilibrated suspension in the solubility determination ([3]; measured after equilibration at 25° C. for 24 hours): 1.52 | Aqueous Solubility ([3]; scaled-up amorphous salts, final pH printed in the same cell): 0.00 mgmL^−1 | thermodynamic aqueous solubility, rank order [3]: HCl>H2SO4>tosylate=free base form | Stability 25° C./92% RH (XRPD after 7 days) ([1]; 25° C./92% RH): Amorphous | Stability 40° C./75% RH (XRPD after 7 days) ([1]; 40° C./75% RH): Amorphous | GVS wt uptake between 0-90% RH [2]: 9.5% wt uptake | XRPD post GVS / XRPD after GVS [2]: Amorphous
